The test system of this test is AML patients. Kind of test: Clinical response of relapsed or refractory AML patients treated with the FTI. Type of test: in vivo, human. Particulars: of a total of 199 evaluable AML patients; 600 mg b.i.d. oral, first 21 days of each 28 day cycle. On the procedure: In the nonprophetic examples, AML patients were administered 600 mg of (R)-6-[amino(4-chlorophenyl)(1-methyl-1H-imidazol-5-yl)methyl]-4-(3-chlorophenyl)-1-methyl-2(1H)-quinolinone) (referred to as Zamestra™) at a starting oral dose of 600 mg b.i.d. for the first 21 days of each 28 day cycle in AML. Subjects were enrolled into two cohorts, those with relapsed AML and those with refractory AML. A total of […] patients (135 relapsed and 117 refractory) were treated.
Anti-leukemic activity is defined as any bone marrow blast count less than 5% or a reduction in bone marrow blasts by at least half.
The average value of the site and DCL blast count measurements were calculated and a Student's t-test was performed to investigate if blast counts correlated with patient response in the AML patients. […] Chi-squared analysis for all evaluable patients also found a significant correlation between high blast counts and resistance to treatment (Ω^2=9.53).

This is an account of results in patent publication US20050003422A1, “Methods for assessing and treating cancer” (priority 2003, published 2005).

Molecules are shown by their SMILES.

Regarding `Cn1cncc1[C@@](N)(c1ccc(Cl)cc1)c1ccc2c(c1)c(-c1cccc(Cl)c1)cc(=O)n2C` [Zamestra], the “evaluable patients who had a CR, CRp, PR, or SD” value stood at 24.
